Source: ChEMBL document CHEMBL1828505, “Bioactive components from the heartwood of Pterocarpus santalinus” (Bioorg Med Chem Lett, 2011)

Legend:
[1] = Cytotoxicity against human Hep3B cells; type: functional, cell-based, Hep 3B2
A549 = assay: Cytotoxicity against human A549 cells; type: functional, cell-based
HepG2 = assay: Cytotoxicity against human HepG2 cells; type: functional, cell-based
[2] = Cytotoxicity against human KBVIN cells; type: functional, cell-based
DU-145 = assay: Cytotoxicity against human DU145 cells; type: functional, cell-based
KB = assay: Cytotoxicity against human KB cells; type: functional, cell-based
Neutrophil = assay: Ratio of LY294002 IC50 to compound IC50 for inhibition of fMLP/CB-indcued elastase release in human neutrophils; type: functional
[3] = Antiinflammatory activity in human neutrophils assessed as inhibition of fMLP/CB-induced elastase release; type: functional, cell-based; conditions: Neutrophil
[4] = Antiinflammatory activity in human neutrophils assessed as inhibition of fMLP/CB-indcued superoxide anion production; type: functional, cell-based; conditions: Neutrophil

SMILES	IC50 [1]	IC50 (A549)	IC50 (HepG2)	IC50 [2]	IC50 (DU-145)	IC50 (KB)	Ratio IC50 (Neutrophil)	IC50 [3]	IC50 [4]
COc1ccc(C(=O)/C=C/c2cc(O)c(OC)cc2O)cc1O [PTEROLINUS L]	20.9 µM	21.9 µM	20.4 µM	22.4 µM	29.8 µM	17.2 µM	6	0.95 µM	–
COC1=CC(=O)c2cc(-c3ccc(OC)c(O)c3)c3cc(O)c(OC)cc3c2C1=O [PTEROLINUS K]	10.9 µM	> 10 µg/mL	> 10 µg/mL	> 10 µg/mL	> 10 µg/mL	> 10 µg/mL	–	4.24 µM	0.99 µM
COc1cccc2c1C(=O)c1c(O)c3c(c(O)c1C2=O)C[C@@](O)(C(=O)CO)C[C@@H]3O[C@H]1C[C@H](N)[C@H](O)[C@H](C)O1 [DOXORUBICIN]	1.57 µM	–	1.29 µM	–	–	–	–	–	–
COc1cc(O)c(C(=O)c2ccccc2)cc1O [CEAROIN]	–	> 10 µg/mL	–	32.2 µM	> 10 µg/mL	35.3 µM	–	–	–
COc1cc2oc(=O)cc(-c3ccccc3)c2cc1O [DALBERGIN]	–	> 10 µg/mL	–	> 10 µg/mL	> 10 µg/mL	> 10 µg/mL	–	–	–
O=c1cc(N2CCOCC2)oc2c(-c3ccccc3)cccc12 [LY-294002]	–	–	–	–	–	–	–	6.48 µM	3.84 µM
